# Source: patent publication US8278355B2, “Isovaline for treatment of pain” (Therexcell Pharma Inc., priority 2006, dated 2012)
# Columns and labels:
# [1] = tested on: strychnine-induced allodynia; assay type: in vivo, mouse; conditions: for effect on hyperalgesia or allodynia (vocalization, flinching, scratching): 4 millimolar with strychnine 200 micromolar in 5 microliters aCSF, p<0.01; for effect on hyperalgesia or allodynia (vocalization, flinching, scratching) / behavior of mice treated with compound and strychnine / side effects in treated animals: cisterna magna; for behavior of mice treated with compound and strychnine: 4 millimolar with strychnine 200 micromolar, compared with aCSF control; for side effects in treated animals: 4 millimolar; for analgesia against trigeminal hyperalgesia or allodynia compared with carbamazepine / analgesia against trigeminal hyperalgesia or allodynia compared with morphine: overall summary
# Method: Strychnine when administered alone to the intact rodent mimics the allodynia of chronic pain resulting from damage to inhibitory amino acid functions in the central nervous system.
# In the present example, injections into the cisterna magna of the mouse were performed as described by Reijneveld, Taphoorn, and Voerst (Journal of Neurooncology 42: 137-142, 1999). Each series of experiments consisted of 6 to 9 pairs of mice. […] In each session, two mice were injected with the strychnine solution within one minute of each other. […] A continuous video recording was made of all responses.
# [2] = tested on: pain of formalin injection in the mouse foot; assay: Formalin hindpaw licking test, lumbar intrathecal pre-treatment; assay type: in vivo, mice; conditions: for cumulative paw licking / licking, early phase (reflecting acute pain) / licking, late phase (reflecting chronic pain): 250 micromolar in 5 microliters, lumbar intrathecal; for cumulative paw licking: 5 minutes before formalin, 40 min, p-value<0.001; for licking, early phase (reflecting acute pain) / licking, late phase (reflecting chronic pain): FIG. 4; for activity against peripherally induced pain, administered to the lumbar cord: overall summary
# Method: The effects of compound (Ib) and (Ic) were determined in the acute and chronic peripheral pain model according to Kolesnikov, Cristea, Oksman, Torosjan, and Wilson (Brain Research 17: 217-223, 2004). Use of this model involves pre-treatment with the test compound and injection of formalin (5% in 20 microliters) into the right hindpaw of mice. Groups of mice (n=10) were injected intrathecally into the lumbar segment with compound (Ib) or (Ic) at 250 micromolar in 5 microliters, at 5 minutes prior to subcutaneous formalin injection into the right hindpaw. The mice were monitored for 40 min for licking activity and assessed according to the method of Abbott, Franklin, and Westbrook (Pain 60: 91-102, 1995).
# [3] = Overall behavioral observation of the animals studied; assay type: in vivo; conditions: all animals studied
# [4] = tested on: pain of formalin injection in the mouse foot; assay: Formalin hindpaw licking test, intravenous pre-treatment; assay type: in vivo, mice; conditions: for analgesia in peripherally induced pain, intravenous administration: overall summary
# Method: Groups of mice (n=10) were injected intravenously with a dose of 500 mg/kg of compound (Ia) at 10 minutes prior to subcutaneous formalin injection into the right hindpaw. After the injection of formalin (5% in 20 microliters), the animals were monitored for 40 min for licking activity.
# [5] = Rotarod test (ataxia, central toxicity) after intravenous administration; conditions: for rotarod performance versus control saline and pre- versus post-injection: 500 mg/kg, 3 ml/kg, tail vein, 10 mice per group, ANOVA p<0.05
# Method: Changes in central nervous system behavior viewed as ataxia were measured using the rotarod procedure in mice, described by Vaupel, McConn, and Cone (Journal of Pharmacology & Experimental Therapeutics, 230: 20-27, 1984). A 27-mm diameter rod was rotated at 5 rpm. At least 1 day before testing, mice were trained in three sessions on the rod for two consecutive 5 minute trials, separated by a 5 minute rest period. During the tests, each trial on the rotarod was limited to a 120 seconds maximum. For all experiments two control trials obtained 6 minutes apart preceded the injection (500 mg/kg, 3 ml/kg) of compound (Ib) or (Ic) into the tail vein. Each mouse was then given 2 trials, with 6 minutes between trials after the injection.
# The data were analyzed as means±SEM of 10 mice in each group, and examined by analysis of variance (ANOVA) for multiple comparisons with the single control group. Level of significance was set to 5% (p<0.05).
# [6] = tested on: strychnine-induced allodynia; conditions: lumbar intrathecal
# Method: Injections into the 6th lumbar intrathecal space were performed according to the method of Hylden and Wilcox (Brain Research 217: 212-215, 1981). The total volume used for injection in all experiments was 5 microliters of artificial cerebrospinal fluid (aCSF). In mice anesthetized with isoflurane, strychnine at 200 micromolar in 5 microliters of aCSF was injected either alone or in combination with compound (Ia) at concentrations of 4 to 8 millimolar in a total volume of 5 microliters of aCSF. In each experiment 2 mice were injected with 5 microliters of solution within one minute of each other. One of the mice received strychnine 200 micromolar in aCSF (control) and the other received the same volume with strychnine 200 micromolar in combination with the test compound (Ia). The mice were placed in a container designed such that they were unaware of the other, but could be simultaneously observed. The presence of flinching, scratching or vocalization in response to touching with a fine hair was noted every two minutes. Responses limited to lumbar segments 5 and 6, as well as originating from more caudal nerve distribution were considered as positive. A continuous video recording was made of all responses. Each experiment consisted of 6 to 9 pairs of mice. The blinded observer decided which animal had the greatest response to stimuli. A Wilcoxon signed rank test was used to determine the statistical significance of the results.
Compound,cumulative paw licking [2],"licking, early phase (reflecting acute pain) [2]","licking, late phase (reflecting chronic pain) [2]","activity against peripherally induced pain, administered to the lumbar cord [2]",behavioral toxicity [3],"effect on hyperalgesia or allodynia (vocalization, flinching, scratching) ([1]; FIG. 1)",behavior of mice treated with compound and strychnine [1],side effects in treated animals [1],analgesia against trigeminal hyperalgesia or allodynia compared with carbamazepine [1],analgesia against trigeminal hyperalgesia or allodynia compared with morphine [1],"analgesia in peripherally induced pain, intravenous administration [4]",rotarod performance versus control saline and pre- versus post-injection [5],further results
"NC(=O)N1c2ccccc2C2OC2c2ccccc21 (centres unmarked) [carbamazepine epoxide, reference compound]",,,,,,,,,,,,,"analgesic effect ([1]; 30 mg/kg body weight, FIG. 1): an analgesic effect"
"CCC(C)(N)C(=O)O (single isomer, unassigned) [(Ic), Isovaline (2-Amino-2-methylbutanoic acid)]",significantly reduced,significantly reduced,significantly reduced,active against acute and chronic pain induced peripherally,no observed behavioral toxicity,The same effects were obtained,identical to the mice which received the aCSF control injection without strychnine,"no side effects such as sedation, movement disorders, or abnormal behavior",surpassed the analgesia produced by carbamazepine,"to a much greater degree than the tested reference opioid, morphine",effective in producing analgesia,did not show significant differences,
"CCC(C)(N)C(=O)O (centres unmarked) [Formula (I), Isovaline (2-Amino-2-methylbutanoic acid)]",,,,,,,,,,,,,"blood-brain-barrier crossing ([4]; inferred from analgesia after intravenous administration): crosses the blood-brain-barrier; central nervous system toxicity, such as ataxia or other disturbances in conscious behavior ([5]; mouse, in vivo): no evidence"
"CCC(C)(N)C(=O)O (single isomer, unassigned) [(Ib), Isovaline (2-Amino-2-methylbutanoic acid)]",significantly reduced,significantly reduced,significantly reduced,active against acute and chronic pain induced peripherally,no observed behavioral toxicity,The same effects were obtained,identical to the mice which received the aCSF control injection without strychnine,"no side effects such as sedation, movement disorders, or abnormal behavior",surpassed the analgesia produced by carbamazepine,"to a much greater degree than the tested reference opioid, morphine",effective in producing analgesia,did not show significant differences,
"CN1CC[C@]23c4c5ccc(O)c4O[C@H]2[C@@H](O)C=C[C@H]3[C@H]1C5 [morphine, reference compound]",,,,,,,,,,,,,"responses to intracisternal injections (analgesia) ([1]; 1 mg/kg body weight, intracisternal, FIG. 1): poor or absent"
"CCC(C)(N)C(=O)O (racemic) [(Ia), Isovaline (2-Amino-2-methylbutanoic acid)]",,,,active against acute and chronic pain induced peripherally,no observed behavioral toxicity,a great reduction and a total blockade of hyperalgesia or allodynia,identical to the mice which received the aCSF control injection without strychnine,"no side effects such as sedation, movement disorders, or abnormal behavior",surpassed the analgesia produced by carbamazepine,"to a much greater degree than the tested reference opioid, morphine",,,"pairs of mice in which blinded observer identified presence of compound ([6]; 8 millimolar plus strychnine 200 micromolar, 5 microliter, FIG. 3, p<0.01): 6 out of 6; effect of sole administration (without strychnine) ([6]; 25 microliters at 10 millimolar, no strychnine): did not produce a significant result; duration of effect [6]: at least 60 minutes; sedation, movement disorders, abnormal behaviour in treated animals ([6]; 8 millimolar): no sedation, movement disorders, or abnormal behaviour; behavior of treated mice without concomitant strychnine injection ([6]; no strychnine, compared with aCSF control): identical to those mice that received aCSF control injection; licking, late phase (reflecting chronic pain) ([4]; 500 mg/kg intravenously, 10 minutes before formalin, 10 to 40 minutes, FIG. 5, p<0.001): significantly reduced"
